Active and inactive are the calls of the source.
Legend:
Estrogen receptor = molecular target: T1, Estrogen receptor (Homo sapiens, UniProt P03372);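 also: potency for inhibiting coactivator peptide recruitment to the receptor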
T1 sequence (P03372 whole entry): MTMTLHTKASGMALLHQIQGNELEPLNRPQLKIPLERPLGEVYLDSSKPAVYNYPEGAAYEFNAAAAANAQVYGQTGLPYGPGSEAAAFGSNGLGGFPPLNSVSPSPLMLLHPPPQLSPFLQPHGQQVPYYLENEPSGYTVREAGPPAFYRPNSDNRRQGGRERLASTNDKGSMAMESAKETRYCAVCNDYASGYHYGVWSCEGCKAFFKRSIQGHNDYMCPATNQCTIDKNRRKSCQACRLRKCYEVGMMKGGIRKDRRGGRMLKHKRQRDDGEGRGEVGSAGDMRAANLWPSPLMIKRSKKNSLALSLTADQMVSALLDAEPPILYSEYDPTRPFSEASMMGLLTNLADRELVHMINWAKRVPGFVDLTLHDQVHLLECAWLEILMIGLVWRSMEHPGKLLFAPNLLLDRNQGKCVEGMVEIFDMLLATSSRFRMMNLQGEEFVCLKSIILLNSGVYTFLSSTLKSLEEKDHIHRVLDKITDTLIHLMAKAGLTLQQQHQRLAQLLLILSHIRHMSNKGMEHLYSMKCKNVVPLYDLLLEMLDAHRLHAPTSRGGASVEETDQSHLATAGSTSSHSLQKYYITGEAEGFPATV

[1] = molecular target: Glucose-6-phosphate 1-dehydrogenase (Homo sapiens, UniProt P11413); assay: inhibition of Homo sapiens G6PD, dose series – biochemical, fluorescence, selectivity assay for P. falciparum G6PD inhibitor project, dose response (AID 504792); assay type: functional
Chain of Glucose-6-phosphate 1-dehydrogenase (P11413 whole entry): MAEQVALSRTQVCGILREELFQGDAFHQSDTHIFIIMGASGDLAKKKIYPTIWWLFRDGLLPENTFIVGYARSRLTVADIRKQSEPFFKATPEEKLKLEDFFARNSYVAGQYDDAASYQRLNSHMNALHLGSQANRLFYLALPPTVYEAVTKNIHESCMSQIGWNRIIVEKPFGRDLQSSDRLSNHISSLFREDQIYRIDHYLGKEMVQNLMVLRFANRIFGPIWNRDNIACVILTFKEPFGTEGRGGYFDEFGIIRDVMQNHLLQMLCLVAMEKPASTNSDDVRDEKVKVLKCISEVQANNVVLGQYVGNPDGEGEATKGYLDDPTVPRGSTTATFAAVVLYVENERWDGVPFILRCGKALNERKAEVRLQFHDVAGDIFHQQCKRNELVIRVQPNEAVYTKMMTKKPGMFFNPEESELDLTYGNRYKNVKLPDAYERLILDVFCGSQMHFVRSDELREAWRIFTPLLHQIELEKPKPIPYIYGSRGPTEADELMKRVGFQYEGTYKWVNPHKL

Large T antigen = Large T antigen (Simian virus 40, UniProt P03070); assay type: functional, Betapolyomavirus macacae;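 also: Confirmatory-stage PubChem screen for compounds that inhibit SV40 T antigen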
Chain of Large T antigen (P03070 whole entry): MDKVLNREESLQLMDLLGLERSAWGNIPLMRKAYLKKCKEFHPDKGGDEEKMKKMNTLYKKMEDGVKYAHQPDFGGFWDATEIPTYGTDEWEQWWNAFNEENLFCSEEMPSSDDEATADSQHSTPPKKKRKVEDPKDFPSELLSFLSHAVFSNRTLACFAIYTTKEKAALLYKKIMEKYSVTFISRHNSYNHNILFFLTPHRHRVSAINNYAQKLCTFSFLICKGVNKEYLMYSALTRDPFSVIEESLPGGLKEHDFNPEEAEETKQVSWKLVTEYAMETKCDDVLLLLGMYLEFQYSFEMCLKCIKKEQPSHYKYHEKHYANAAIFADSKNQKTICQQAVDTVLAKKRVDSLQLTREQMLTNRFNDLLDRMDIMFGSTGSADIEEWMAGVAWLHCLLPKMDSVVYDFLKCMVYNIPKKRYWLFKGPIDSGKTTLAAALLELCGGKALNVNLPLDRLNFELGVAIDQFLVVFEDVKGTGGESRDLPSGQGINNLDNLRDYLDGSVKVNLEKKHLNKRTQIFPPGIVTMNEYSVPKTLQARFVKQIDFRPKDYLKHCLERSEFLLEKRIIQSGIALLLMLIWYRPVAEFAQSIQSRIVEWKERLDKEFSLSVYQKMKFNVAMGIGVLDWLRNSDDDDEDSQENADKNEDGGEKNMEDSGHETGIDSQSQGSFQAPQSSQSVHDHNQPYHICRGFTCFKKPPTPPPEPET

[2] = molecular target: DNA dC->dU-editing enzyme APOBEC-3G (Homo sapiens, UniProt Q9HC16); assay: Dose Response confirmation of small molecule APOBEC3G DNA Deaminase Inhibitors via a fluorescence-based single-stranded DNA deaminase assay. [Related pubchem assays (depositor defined):AID493012, AID493028]; assay type: functional
Chain of DNA dC->dU-editing enzyme APOBEC-3G (Q9HC16 whole entry): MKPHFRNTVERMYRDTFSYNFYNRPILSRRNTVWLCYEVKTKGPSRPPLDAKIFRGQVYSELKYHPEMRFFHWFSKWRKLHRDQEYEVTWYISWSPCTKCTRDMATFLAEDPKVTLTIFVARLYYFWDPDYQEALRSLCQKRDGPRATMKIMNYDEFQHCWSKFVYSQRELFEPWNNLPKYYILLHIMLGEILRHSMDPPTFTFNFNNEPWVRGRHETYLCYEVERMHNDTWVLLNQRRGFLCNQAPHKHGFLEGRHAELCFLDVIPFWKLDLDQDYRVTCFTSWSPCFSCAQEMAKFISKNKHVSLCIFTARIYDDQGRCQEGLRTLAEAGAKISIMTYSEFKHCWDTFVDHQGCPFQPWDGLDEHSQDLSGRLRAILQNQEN

[3] = molecular target: T2, Mitochondrial peptide methionine sulfoxide reductase (Bos taurus, UniProt P54149); assay: Absorbance-based biochemical high throughput dose response assay for activators of Methionine sulfoxide reductase A (MsrA).; assay type: functional
T2 sequence (P54149 whole entry): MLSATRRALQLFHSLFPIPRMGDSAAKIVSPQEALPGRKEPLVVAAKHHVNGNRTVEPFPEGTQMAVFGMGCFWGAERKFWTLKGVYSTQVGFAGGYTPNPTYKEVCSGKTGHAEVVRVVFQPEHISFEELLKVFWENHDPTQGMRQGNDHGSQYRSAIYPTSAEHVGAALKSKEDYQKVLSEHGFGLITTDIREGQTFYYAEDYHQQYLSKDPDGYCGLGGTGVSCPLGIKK

[4] = molecular target: Glyceraldehyde-3-phosphate dehydrogenase (Homo sapiens, UniProt P04406)
Chain of Glyceraldehyde-3-phosphate dehydrogenase (P04406 whole entry): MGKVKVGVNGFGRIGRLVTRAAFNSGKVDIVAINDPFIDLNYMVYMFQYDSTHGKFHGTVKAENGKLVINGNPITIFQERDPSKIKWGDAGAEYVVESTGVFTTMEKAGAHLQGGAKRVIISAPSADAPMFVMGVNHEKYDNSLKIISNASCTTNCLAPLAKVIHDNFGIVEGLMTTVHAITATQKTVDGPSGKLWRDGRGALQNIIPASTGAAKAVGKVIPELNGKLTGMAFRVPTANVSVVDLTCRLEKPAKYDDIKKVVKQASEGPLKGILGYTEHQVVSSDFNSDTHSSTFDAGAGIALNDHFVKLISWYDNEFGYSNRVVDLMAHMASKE

Beta-galactosidase = Beta-galactosidase (Escherichia coli, UniProt Q8VNN2); assay: PubChem AID 485352; assay type: functional
Chain of Beta-galactosidase (Q8VNN2 whole entry): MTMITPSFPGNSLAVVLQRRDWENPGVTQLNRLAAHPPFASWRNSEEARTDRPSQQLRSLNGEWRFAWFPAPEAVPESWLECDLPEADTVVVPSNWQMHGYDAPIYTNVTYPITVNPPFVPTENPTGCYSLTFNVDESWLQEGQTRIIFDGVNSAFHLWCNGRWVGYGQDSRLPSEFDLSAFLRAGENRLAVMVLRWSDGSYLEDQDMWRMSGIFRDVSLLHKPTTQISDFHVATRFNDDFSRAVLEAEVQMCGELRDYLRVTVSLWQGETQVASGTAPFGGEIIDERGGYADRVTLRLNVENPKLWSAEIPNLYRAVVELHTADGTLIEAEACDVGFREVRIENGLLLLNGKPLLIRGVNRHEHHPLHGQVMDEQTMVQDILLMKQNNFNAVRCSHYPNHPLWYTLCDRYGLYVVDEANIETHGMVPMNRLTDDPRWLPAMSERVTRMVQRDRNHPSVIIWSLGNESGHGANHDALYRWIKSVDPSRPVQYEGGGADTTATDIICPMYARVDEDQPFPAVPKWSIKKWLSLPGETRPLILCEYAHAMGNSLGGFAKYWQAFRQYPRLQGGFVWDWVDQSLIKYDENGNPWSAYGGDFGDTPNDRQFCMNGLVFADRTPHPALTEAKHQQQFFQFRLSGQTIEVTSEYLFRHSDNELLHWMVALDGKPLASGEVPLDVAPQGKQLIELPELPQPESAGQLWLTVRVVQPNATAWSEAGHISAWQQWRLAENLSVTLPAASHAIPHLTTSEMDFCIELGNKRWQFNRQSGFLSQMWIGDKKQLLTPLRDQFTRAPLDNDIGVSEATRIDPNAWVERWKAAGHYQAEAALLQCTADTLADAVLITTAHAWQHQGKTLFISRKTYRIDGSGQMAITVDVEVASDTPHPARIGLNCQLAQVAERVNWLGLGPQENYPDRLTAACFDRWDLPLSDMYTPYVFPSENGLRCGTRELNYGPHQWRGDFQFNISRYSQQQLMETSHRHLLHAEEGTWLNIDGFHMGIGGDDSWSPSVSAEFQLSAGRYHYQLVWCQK

[5] = molecular target: T3, Type-1 angiotensin II receptor (Homo sapiens, UniProt P30556); assay: antagonism of angiotensin II type 1 receptor – cell-based, uHTS hits, selectivity assay for APJ receptor antagonist project, dose response (AID 463214); assay type: functional;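 also: antagonist potency against angiotensin II stimulated AT1 response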
T3 sequence (P30556 whole entry): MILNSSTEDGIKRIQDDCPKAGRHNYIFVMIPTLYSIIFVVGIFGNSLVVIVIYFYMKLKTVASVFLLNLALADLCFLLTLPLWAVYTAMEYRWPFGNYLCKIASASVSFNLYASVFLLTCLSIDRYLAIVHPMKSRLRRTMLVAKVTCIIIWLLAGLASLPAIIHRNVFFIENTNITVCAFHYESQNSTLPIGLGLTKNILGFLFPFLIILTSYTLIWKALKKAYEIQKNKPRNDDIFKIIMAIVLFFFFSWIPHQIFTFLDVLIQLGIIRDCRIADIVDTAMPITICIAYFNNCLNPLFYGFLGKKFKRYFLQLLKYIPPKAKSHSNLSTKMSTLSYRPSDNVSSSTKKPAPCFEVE

[6] = NIH-3T3 fibroblast cytotoxicity, dose response, cytotoxicity control, cell-based, fluorescence, Alamar Blue, secondary assay (AID 2327); assay type: functional;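 also: NIH-3T3 mouse fibroblasts cultured with fluconazole at 8 µg/mL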
HEK293 [7] = assay: inhibition of NOD1-driven NF-kB reporter – cell-based, luminescence, uHTS, primary screen (AID 1578); assay type: functional; settings: Homo sapiens
HEK293 [8] = assay: cells; assay type: functional, cell-based; settings: Homo sapiens
[9] = fluconazole-exposed Candida albicans growth modulators – fluorescence, retest, confirmation (AID 2467); assay type: functional, cell-based
HEK293 [10] = assay: cells; assay type: functional, cell-based; settings: Homo sapiens; remark: listed apart in the source
[11] = molecular target: Nucleotide-binding oligomerization domain-containing protein 2 (Homo sapiens, UniProt Q9HC29); assay: inhibition of NOD2-driven NF-kB reporter – cell-based, luminescence, uHTS, HEK293 (AID 1566); assay type: functional
Chain of Nucleotide-binding oligomerization domain-containing protein 2 (Q9HC29 whole entry, the tested form may be a part): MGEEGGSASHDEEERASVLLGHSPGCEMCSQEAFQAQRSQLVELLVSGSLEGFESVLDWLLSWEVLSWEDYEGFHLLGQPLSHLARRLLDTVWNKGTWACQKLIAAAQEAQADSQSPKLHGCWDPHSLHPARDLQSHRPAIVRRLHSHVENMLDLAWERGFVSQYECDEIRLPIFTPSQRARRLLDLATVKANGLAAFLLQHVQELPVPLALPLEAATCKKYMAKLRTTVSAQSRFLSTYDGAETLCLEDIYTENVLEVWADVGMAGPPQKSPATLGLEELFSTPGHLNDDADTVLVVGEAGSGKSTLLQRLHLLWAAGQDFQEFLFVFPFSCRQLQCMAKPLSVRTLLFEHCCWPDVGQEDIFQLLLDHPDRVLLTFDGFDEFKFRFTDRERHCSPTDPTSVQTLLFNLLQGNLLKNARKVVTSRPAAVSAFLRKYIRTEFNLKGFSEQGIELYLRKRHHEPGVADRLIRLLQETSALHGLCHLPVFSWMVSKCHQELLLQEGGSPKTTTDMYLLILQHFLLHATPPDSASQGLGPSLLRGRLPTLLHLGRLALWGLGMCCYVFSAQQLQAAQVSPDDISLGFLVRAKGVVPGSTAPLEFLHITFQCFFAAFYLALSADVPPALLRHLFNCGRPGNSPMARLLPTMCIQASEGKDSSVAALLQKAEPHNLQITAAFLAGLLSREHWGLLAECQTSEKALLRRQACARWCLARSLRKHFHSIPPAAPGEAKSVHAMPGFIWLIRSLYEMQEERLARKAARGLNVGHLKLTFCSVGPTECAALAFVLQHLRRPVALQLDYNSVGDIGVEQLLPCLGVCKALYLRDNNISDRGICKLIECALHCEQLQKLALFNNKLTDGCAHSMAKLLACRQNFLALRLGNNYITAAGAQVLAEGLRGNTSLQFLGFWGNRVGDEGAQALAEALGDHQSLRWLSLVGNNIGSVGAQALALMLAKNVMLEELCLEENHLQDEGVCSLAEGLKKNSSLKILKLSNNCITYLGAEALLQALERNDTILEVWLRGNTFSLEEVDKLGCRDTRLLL

HEK293 [12] = assay: NOD2 signaling inhibitors in MDP-stimulated cells, cell-based, uHTS, luminescence (AID 2001); assay type: functional; settings: Homo sapiens
HEK293 [13] = assay: cells; assay type: functional, cell-based; settings: Homo sapiens; remark: listed apart in the source
[14] = molecular target: T4, Microphthalmia-associated transcription factor (Homo sapiens, UniProt O75030); assay: reducers of TRPM1 reporter luminescence, concentration series – cell-based, SK-MEL-5, cherry-picked, set 3, MITF inhibitor project, dose response (AID 493073); assay type: functional;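 also: SK-MEL-5 melanoma cells with luciferase driven by the MITF target TRPM1 promoter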
T4 sequence (O75030 whole entry): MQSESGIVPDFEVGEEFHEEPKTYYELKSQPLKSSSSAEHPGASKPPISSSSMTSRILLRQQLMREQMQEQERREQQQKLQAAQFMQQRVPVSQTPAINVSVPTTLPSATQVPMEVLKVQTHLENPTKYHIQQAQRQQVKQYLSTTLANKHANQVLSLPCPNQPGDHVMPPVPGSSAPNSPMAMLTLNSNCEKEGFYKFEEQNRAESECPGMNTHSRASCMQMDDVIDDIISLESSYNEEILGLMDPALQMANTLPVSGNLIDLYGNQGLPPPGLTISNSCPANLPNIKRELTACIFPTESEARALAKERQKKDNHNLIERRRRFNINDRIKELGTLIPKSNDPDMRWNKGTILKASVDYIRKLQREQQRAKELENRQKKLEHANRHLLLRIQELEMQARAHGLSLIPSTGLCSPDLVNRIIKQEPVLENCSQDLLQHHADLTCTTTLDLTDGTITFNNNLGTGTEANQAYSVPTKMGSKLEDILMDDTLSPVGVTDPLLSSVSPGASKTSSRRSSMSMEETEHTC

Vero [15] = assay: cells; assay type: functional, cell-based; settings: Chlorocebus sabaeus
Vero [16] = assay: cells; assay type: functional; settings: Chlorocebus sabaeus
[17] = HEK-293T viability loss after treatment – luminescence, T-cell screen hits, cytotoxicity control for TCR NF-kB inhibitor project, dose response (AID 489026); assay type: functional, cell-based;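 also: cells exposed to compound about 14 hours before the viability readout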

Structure (SMILES): CS(=O)(=O)c1ccc2nc(NC(=O)CCC(=O)c3cccs3)sc2c1
- IC50 (Estrogen receptor): 7.11 µM (active)

Structure (SMILES): C[C@H](CO)N1C[C@H](C)[C@@H](CN(C)C(=O)Nc2ccc(C(F)(F)F)cc2)Oc2c(cccc2N(C)C)C1=O
- IC50 [1]: > 80 µM (inactive)

Structure (SMILES): OCc1ccccc1SSc1ccccc1CO
- IC50 (Large T antigen): 11.4 µM (active)
- IC50 [1]: > 80 µM (inactive)
- IC50 [2]: 12.3 µM (active)
- EC50 [3]: > 104 µM (inactive)

Structure (SMILES): Cc1cccc(N2C(=O)C(Cl)=C(N3CCN[C@H](C)C3)C2=O)c1
- IC50 [4]: > 50 µM (inconclusive)

Structure (SMILES): Cc1cc(C)nc(NNS(=O)(=O)c2c(F)cc(F)cc2Br)n1
- EC50 (Beta-galactosidase): > 40 µM (inactive)
- IC50 [5]: 22.7 µM (not active)

Structure (SMILES): O=C(CCl)N1c2ccccc2SCC1c1ccccc1 (configuration not stated)
- EC50 [6]: 7.57 µM (inconclusive)
- EC50 (HEK293 [7]): 11.5 µM (active)
- IC50 (HEK293 [8]): 5.49 µM (active)
- EC50 [9]: > 38 µM (not active)
- IC50 (HEK293 [10]): > 20 µM (inactive)
- EC50 [11]: > 20 µM (inactive)
- IC50 (HEK293 [12]): 8.37 µM (active)
- IC50 (HEK293 [13]): > 20 µM (inactive)
- AC50 [14]: 4.2 µM (active)

Structure (SMILES): O=C(CNC(=O)c1cccc(S(=O)(=O)N2CCc3ccccc32)c1)Nc1ccccc1Br
- IC50 (Vero [15]): 16.9 µM (active)
- CC50 (Vero [16]): > 25 µM (active)

Structure (SMILES): COc1cc(C(=O)OCCc2cc3ccccc3c(=O)o2)cc(OC)c1OC
- IC50 [17]: 69.5 µM (inactive)

Structure (SMILES): COc1cc(N)c2ncsc2c1
- IC50 [1]: > 80 µM (inactive)
